From article PMC7806522, “Olfactory marker protein interacts with adenosine nucleotide derivatives” (Biochemistry and Biophysics Reports, 2021) come the findings set out here.

Common to all, as to assay type: biochemical
In test [1] the target is T1, Olfactory marker protein (OMP) (Mus musculus, UniProt Q64288).
T1 construct: Rluc-OMP fusion (Rluc upstream of mouse OMP, NM_011010), from HEK293T lysate
T1 sequence (Q64288 2-163): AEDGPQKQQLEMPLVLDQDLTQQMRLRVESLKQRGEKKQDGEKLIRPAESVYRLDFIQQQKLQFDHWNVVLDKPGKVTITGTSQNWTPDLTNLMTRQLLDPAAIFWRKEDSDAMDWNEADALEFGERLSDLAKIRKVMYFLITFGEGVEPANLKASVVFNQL
The test is described as follows: BRET competition against […] 8NBD-cAMP (U-shaped). (In general: Bioluminescence resonance energy transfer reports proximity on the nanometre scale.)

Test [2] deals with T1, Olfactory marker protein (OMP). The test is described as follows: direct BRET binding, Rluc-OMP to fluorescent TNP-ATP, Rluc-alone background subtracted.
The target is the same in test [3]. The test is described as follows: BRET competition against […] 8NBD-cAMP (U-shaped, peak at […]).

As usually defined, the EC50 is the midpoint of the concentration-response curve.

With `Nc1ncnc2c1ncn2[C@@H]1O[C@H](COP(=O)(O)OP(=O)(O)OP(=O)(O)O)[C@@H](O)[C@H]1O` [ATP], the concentration for a half-maximal effect (EC50) in test [1] amounted to 1 ± 0.15 µM.

For `Nc1ncnc2c1ncn2[C@@H]1O[C@H](COP(=O)(O)OP(=O)(O)OP(=O)(O)O)[C@H]2OC3(O[C@H]21)C([N+](=O)[O-])=CC(=[N+]([O-])[O-])C=C3[N+](=O)[O-]` (stereo partly drawn) [TNP-ATP], the 50% effective concentration (EC50) in test [2] came out at 13 ± 1.5 µM.

`Nc1ncnc2c1ncn2[C@@H]1O[C@H](COP(=O)(O)OP(=O)(O)O)[C@@H](O)[C@H]1O` [ADP]: the “concentration at peak BRET signal” value in test [3] was 1 to 3 µM.
